Measured values published in publication PMC11187126, “Structure and dynamics of the pyroglutamylated RF-amide peptide QRFP receptor GPR103” (Nature Communications, 2024).
Where two headings read alike, the source gives them in different places. No end group written: not given here.

Target: T1, GPR103 C285^6.47A (Homo sapiens, UniProt Q96P65, C285A)
T1 construct: we used human full-length QRFPR-encoding plasmids; expressed in transfected cells; host or cells: HEK293 cells (HEK293A in the flow cytometry section), pCAGGS vector
T1 sequence (Q96P65 1-431 C285A): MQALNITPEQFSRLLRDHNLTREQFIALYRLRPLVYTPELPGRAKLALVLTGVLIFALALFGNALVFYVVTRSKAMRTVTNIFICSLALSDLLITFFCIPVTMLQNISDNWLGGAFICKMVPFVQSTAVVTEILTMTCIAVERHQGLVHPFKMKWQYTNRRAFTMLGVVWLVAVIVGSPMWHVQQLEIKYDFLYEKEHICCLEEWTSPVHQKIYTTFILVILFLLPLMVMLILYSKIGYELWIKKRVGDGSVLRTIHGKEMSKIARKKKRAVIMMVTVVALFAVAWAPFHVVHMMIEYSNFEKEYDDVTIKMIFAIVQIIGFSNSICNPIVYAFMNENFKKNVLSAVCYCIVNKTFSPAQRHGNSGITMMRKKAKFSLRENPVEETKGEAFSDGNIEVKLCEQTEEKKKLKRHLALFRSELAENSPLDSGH
Assay: TGFα shedding assay; Exp. level WT (1:20)
Format: cell-based
Method: For the TGFα shedding assay and the flow cytometry analysis, we used human full-length QRFPR-encoding plasmids. Specifically, GPR103 was N-terminally modified with an HA signal sequence followed by a FLAG epitope and then a flexible linker ([…]; the FLAG epitope is underlined) and inserted into the pCAGGS vector. Plasmid encoding GPR103 mutants were generated using Quickchange Site-Directed Mutagensis kit (Agilent).
The TGFα shedding assay was performed as described previously with minor modifications. Plasmid transfection was performed in a 6-well plate with a mixture of 500 ng (per well in a 6-well plate) AP-TGFα-encoding plasmid and 200 ng GPR103-encoding plasmid. After 1-day culture, the transfected cells were harvested by trypsinization, pelleted by centrifugation at 190 × g for 5 min, and washed once with 5 mM HEPES (pH 7.4)-containing Hank’s Balanced Salt Solution (HBSS). After centrifugation, the cells were resuspended in 8 mL of the HEPES-containing HBSS. The cell suspension was seeded in a 96-well culture plate (cell plate) at a volume of 90 μL (per well hereafter) and incubated in a 37 °C incubator with 5% CO2 for 30 min. […] After spinning the cell plates at 190 × g for 2 min, 80 μL of conditioned media was transferred to an empty 96-well plate (conditioned media (CM) plate). Then, 80 μL of AP reaction solution (10 mM p-nitrophenylphosphate (p-NPP), 120 mM Tris-HCl (pH 9.5), 40 mM NaCl, and 10 mM MgCl2) was dispensed into the cell plates and the CM plates. Absorbance at 405 nm of the plates was measured using a microplate reader (SpectraMax 340 PC384, Molecular Devices) before and after 1-h incubation at room temperature. Ligand-induced AP-TGFα release was calculated by subtracting spontaneous AP-TGFα release signal from ligand-induced AP-TGFα release signal. The AP-TGFα release signals were fitted to a four-parameter sigmoidal concentration–response curve, using the Prism 10 software (GraphPad Prism). For each replicate experiment, the pEC50 parameter (negative logarithmic values of EC50 values) of the individual GPR103 mutants were normalized to that of the wild-type GPR103 performed in parallel, and resulting ∆pEC50 values were used to denote ligand response activity of the mutants. […]
Exp. le vel: WT (1:5 0)Exp. le vel: WT (1:5 0)Exp. le vel: WT (1:5 0)Exp. le vel: WT (1:2 0)Exp. le vel: WT (1:2 0)Exp. le vel: WT (1:1 0) […]
L1 4N - t e r mA F2 5N - t e r mA I 2 6N - t e r mA Y 2 9N - t e r mA C 9 82 .5 7A T10 22 .6 1A Exp . l eve l: WT (1 :5)Exp . l evel : >WT (1 :1)Exp. le vel: WT (1:2 0)Exp. le vel: WT (1:2 0)Exp. le vel: WT (1:5 0)Exp . l eve l: WT (1 :1) […]
Exp. le vel: WT (1:1 0)Exp. le vel: WT (1:2 0) C 1 1 83 .2 5AExp. le vel: WT (1:5 0)Exp. le vel: WT (1:5 0)Exp. le vel: WT (1:2 0)Exp . l eve l: WT (1 :5) […]
Exp. le vel: WT (1:5 0)Exp. le vel: WT (1:1 0)Exp. le vel: WT (1:5 0) E203ECL2AExp . l evel : >WT (1 :1)Exp. le vel: WT (1:5 0)Exp. le vel: WT (1:5 0) […]
Exp . l eve l: WT (1 :1) F28Exp. le vel: WT (1:5 0) C 2 8 56 .4 7AExp. le vel: WT (1:2 0) WExp. le vel: WT (1:2 0) F28Exp. le vel: WT (1:5 0)Exp . l evel : >WT (1 :1) […]
Exp. le vel: WT (1:5 0)Exp. le vel: WT (1:5 0) C 3 2 77 .4 8AExp . l eve l: WT (1 :5)Exp . l evel : >WT (1 :1)Exp . l evel : >WT (1 :1) […]
Suppl eme nt ary Figure 1 | Mutational analysis of GPR103. […]
mutants. Data are presented as mean values ± SEM, normally n=3-5; dots), each performed in triplicate. b-d Cell-surface expression (b) and QRFP26-in-duced activation of GPR103 (c, d) were analyzed by the flow cytometry and the TGFα shedding assay, respectively. From the concentration–response curves (a), Emax (c) and ΔpEC50 (d) values relative to the wild type were calculated. Colors in the mutant bars indicate an expression level matching to that of titrated wild type. Statistical analyses were performed using the ordinary one-way ANOVA followed by Dunnett tests with the expression-matched […]

- Emax (Exp. #1): 81.15 % WT
- Emax (Exp. #2): 80.43 % WT
- Emax (Exp. #3): 87.98 % WT
- Emax (mean, read-out: Emax): 83.2%
- EC50 (n = 3): 14.1 nM
- Emax (n = 3, read-out: Emax): 86.7 ± 2%
Substance: TSGPLGNLAEELNGYSRKKGGFSFRF-NH2 [QRFP26]
